Source: ChEMBL document CHEMBL1201862, “PubChem BioAssay data set” (2004)
“And” between values parts separate entries of the source, which are not always exact repeats. Equal values may be shown once.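 Following 48 hours of exposure in 96-well plates, responses at five concentrations were used to interpolate endpoints linearly. GI50 is the concentration that inhibits growth by half.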 The source made the active and inactive calls. No stated cut-off is given here; in the data, active = GI50 up to about 1.1 µM and inactive = higher.

Assays:
Assay in all cases: inhibition of tumour cell growth, NCI panel, 48 h
[1] = system: SK-MEL-28
[2] = system: MDA-MB-231
[3] = system: HOP-62
[4] = system: COLO 205
[5] = system: Malme-3M
[6] = system: Hs-578T
[7] = system: NCI-H226
[8] = system: OVCAR-5
[9] = system: MCF7
[10] = system: OVCAR-4
[11] = system: UO-31
[12] = system: TK-10
[13] = system: PC-3
[14] = system: SR
[15] = system: SF-539
[16] = system: SN12C
[17] = system: MDA-N
[18] = system: HL-60
[19] = system: T47D
[20] = system: CAKI-1

| Compound | GI50 [1] | GI50 [2] | GI50 [3] | GI50 [4] | GI50 [5] | GI50 [6] | GI50 [7] | GI50 [8] | GI50 [9] | GI50 [10] | GI50 [11] | GI50 [12] | GI50 [13] | GI50 [14] | GI50 [15] | GI50 [16] | GI50 [17] | GI50 [18] | GI50 [19] | GI50 [20] |
| --- | --- | --- | --- | --- | --- | --- | --- | --- | --- | --- | --- | --- | --- | --- | --- | --- | --- | --- | --- | --- |
| C[C@@]1(Br)C[C@@](C)(Cl)[C@@H](Br)CC1/C=C/Cl (stereo partly drawn) | 21.9 µM (inactive) | 20.1 µM (inactive) | 17 µM (inactive) | 15.6 µM (inactive) | < 0.01 µM (active) | 16.7 µM (inactive) | 10.8 µM (inactive) | 15.1 µM (inactive) | 16.6 µM (inactive) | 24.8 µM (inactive) | 18.5 µM (inactive) | 18.4 µM (inactive) | 15.9 µM (inactive) | 14.1 µM (inactive) | 15.2 µM (inactive) | 15 µM (inactive) | 15.8 µM (inactive) |  |  |  |
| CSC1=N/C(=C\c2cccs2)C(=O)N1CN1CCCCC1 | > 100 µM (inactive) | > 100 µM (inactive) | > 100 µM (inactive) | 70.6 µM (inactive) | 28.3 µM (inactive) | 18.3 µM (inactive) | 57.8 µM (inactive) | > 100 µM (inactive) | 45.2 µM (inactive) |  | 23.3 µM (inactive) | > 100 µM (inactive) | > 100 µM (inactive) | 32.2 µM (inactive) |  | > 100 µM (inactive) | > 100 µM (inactive) |  |  |  |
| COc1cc(C(=O)n2c3ccc(Br)cc3c3nc4ccccc4nc32)cc(OC)c1OC | > 100 µM (inactive) | 72.8 µM (inactive) | > 100 µM (inactive) | > 100 µM (inactive) | > 100 µM (inactive) |  | > 100 µM (inactive) | > 100 µM (inactive) | > 100 µM (inactive) | > 100 µM (inactive) | > 100 µM (inactive) | 32.7 µM (inactive) | > 100 µM (inactive) | > 100 µM (inactive) | 23.8 µM (inactive) | > 100 µM (inactive) | > 100 µM (inactive) | > 100 µM (inactive) | > 100 µM (inactive) | > 100 µM (inactive) |
| C=C1CC[C@@H](C)[C@](C)(CCc2ccoc2)C/C=C\C=C/1C(=O)O | 21.9 µM (inactive) | 59.2 µM (inactive) | 44.8 µM (inactive) | 21 µM (inactive) | 33.4 µM (inactive) | 71 µM (inactive) | 35.6 µM (inactive) | > 100 µM (inactive) | 33.3 µM (inactive) | 39.5 µM (inactive) | 34.1 µM (inactive) | > 100 µM (inactive) | 28.9 µM (inactive) | 23 µM (inactive) | 19.6 µM (inactive) | 50.5 µM (inactive) | 22 µM (inactive) | 16.5 µM (inactive) |  | 31.6 µM (inactive) |
| NC1=NC(=O)C2(NN1)c1ccccc1-c1ccccc12 | > 10 µM (inactive) |  | > 10 µM (inactive) | > 10 µM (inactive) | > 10 µM (inactive) |  | > 10 µM (inactive) | > 10 µM (inactive) | 3.26 µM (inactive) |  | > 10 µM (inactive) | > 10 µM (inactive) | > 10 µM (inactive) | > 10 µM (inactive) | > 10 µM (inactive) | > 10 µM (inactive) | > 10 µM (inactive) | 8.99 µM (inactive) | 2.42 µM (inactive) | > 10 µM (inactive) |
| C=C(C)C12OC3(c4ccccc4)OC1C1C4OC4(CO)C(O)C4(O)C(=O)C(C)=CC4C1(O3)C(C)C2OC(=O)/C=C/C=C/c1ccccc1 (stereo not drawn) | 0.33 µM (active) | < 0.0005 µM (active) | 0.551 µM (active) | < 0.0005 µM (active) | 0.474 µM (active) |  | 0.228 µM (active) | 0.0802 µM (active) | 0.222 µM (active) | 0.173 µM (active) | 0.0702 µM (active) | < 0.0005 µM (active) | 0.111 µM (active) | 0.122 µM (active) | 0.372 µM (active) | 0.112 µM (active) | < 0.0005 µM (active) | < 0.0005 µM (active) | 1.51 µM (inactive) | 0.504 µM (active) |
| Nc1ccc(S(=O)(=O)NCCS(=O)(=O)O)cc1 | > 100 µM (inactive) | > 100 µM (inactive) | > 100 µM (inactive) |  | > 100 µM (inactive) | > 100 µM (inactive) | > 100 µM (inactive) | > 100 µM (inactive) |  | > 100 µM (inactive) | > 100 µM (inactive) | > 100 µM (inactive) | > 100 µM (inactive) | > 100 µM (inactive) |  | > 100 µM (inactive) | > 100 µM (inactive) | > 100 µM (inactive) |  | > 100 µM (inactive) |
| CCOP(=O)(OCC)C(C)(CC)NC(=O)C(C(F)(F)F)C(F)(F)F (stereo not drawn) | > 100 µM (inactive) |  | > 100 µM (inactive) | > 100 µM (inactive) | > 100 µM (inactive) | > 100 µM (inactive) | > 100 µM (inactive) | > 100 µM (inactive) | > 31.6 µM (inactive) and 29.7 µM (inactive) | > 100 µM (inactive) | > 100 µM (inactive) and 97.3 µM (inactive) | 75.9 µM (inactive) | > 100 µM (inactive) | 63.4 µM (inactive) and 33.8 µM (inactive) |  | > 100 µM (inactive) | > 100 µM (inactive) |  |  | > 100 µM (inactive) |
| N/C(=N\c1ccc(Cl)cc1)NS(=O)(=O)c1ccc(-c2ncccc2C(F)(F)F)s1 | 16.9 µM (inactive) | 13.9 µM (inactive) | 18.2 µM (inactive) | 42 µM (inactive) | 15.2 µM (inactive) | 17.1 µM (inactive) | 17.2 µM (inactive) | 24.3 µM (inactive) | 14.7 µM (inactive) | 18.5 µM (inactive) | 17.2 µM (inactive) | 13.4 µM (inactive) | 13.1 µM (inactive) | 10.5 µM (inactive) | 25.8 µM (inactive) | 17.2 µM (inactive) |  | 15.2 µM (inactive) | 12.3 µM (inactive) |  |
| O=P(O)(CN1CCN(CP(=O)(O)c2ccccc2)CCN(CP(=O)(O)c2ccccc2)CC1)c1ccccc1 | > 100 µM (inactive) |  | > 100 µM (inactive) | 69.3 µM (inactive) | 56.2 µM (inactive) |  | > 100 µM (inactive) | > 100 µM (inactive) | 28.1 µM (inactive) | 32.1 µM (inactive) | > 100 µM (inactive) | 92.5 µM (inactive) |  |  | 67.1 µM (inactive) |  | 67.8 µM (inactive) | > 100 µM (inactive) | > 100 µM (inactive) | 45.8 µM (inactive) |
| N#CC(C(=O)/C(=N/Nc1nc(S)nn1N)C(C#N)c1ccccc1)c1ccccc1 (stereo not drawn) | > 100 µM (inactive) | > 100 µM (inactive) | > 100 µM (inactive) | > 100 µM (inactive) | > 100 µM (inactive) | > 100 µM (inactive) | > 100 µM (inactive) | > 100 µM (inactive) | > 100 µM (inactive) | > 100 µM (inactive) | > 100 µM (inactive) | > 100 µM (inactive) | > 100 µM (inactive) | > 100 µM (inactive) | > 100 µM (inactive) | > 100 µM (inactive) |  | > 100 µM (inactive) | > 100 µM (inactive) | > 100 µM (inactive) |
| COP1(=S)OCC2CCC[C@@H]2O1 (stereo partly drawn) | > 100 µM (inactive) | > 100 µM (inactive) |  | > 100 µM (inactive) | > 100 µM (inactive) |  | > 100 µM (inactive) | > 100 µM (inactive) |  | > 100 µM (inactive) | > 100 µM (inactive) | > 100 µM (inactive) | > 100 µM (inactive) | > 100 µM (inactive) | > 100 µM (inactive) | > 100 µM (inactive) | > 100 µM (inactive) | > 100 µM (inactive) | > 100 µM (inactive) | > 100 µM (inactive) |
| CO[C@H]1[C@@H](O)[C@@H](C)O[C@@H](O[C@H]2CC[C@@]3(C)[C@H](CC[C@@H]4[C@@H]3CC[C@]3(C)[C@@H](C5=CC(=O)OC5)[C@@H](OC(C)=O)C[C@]43O)C2)[C@@H]1O [NERITALOSIDE] | 0.291 µM (active) | 0.198 µM (active) | 0.0253 µM (active) | 0.156 µM (active) | 0.016 µM (active) | 0.0202 µM (active) | 0.173 µM (active) | 0.0914 µM (active) | 0.16 µM (active) | 0.0601 µM (active) | 0.0177 µM (active) | 0.0164 µM (active) | 0.0256 µM (active) | 0.0533 µM (active) | 0.0248 µM (active) | 0.0152 µM (active) |  | 0.0566 µM (active) | 0.162 µM (active) | 0.0208 µM (active) |
| Nc1ccc(COC(O)CN2CCCCC2)cc1[N+](=O)[O-] (stereo not drawn) | > 100 µM (inactive) | > 100 µM (inactive) |  | > 100 µM (inactive) | > 100 µM (inactive) |  | > 100 µM (inactive) | > 100 µM (inactive) | > 100 µM (inactive) | > 100 µM (inactive) | > 100 µM (inactive) | > 100 µM (inactive) | > 100 µM (inactive) | > 100 µM (inactive) | > 100 µM (inactive) | > 100 µM (inactive) | > 100 µM (inactive) | > 100 µM (inactive) | > 100 µM (inactive) | > 100 µM (inactive) |
| N#Cc1cc2c(cc1Cl)Sc1nccn1S2(=O)=O | 2.32 µM (inactive) | 3.59 µM (inactive) | 3.38 µM (inactive) | 12.4 µM (inactive) | 6.79 µM (inactive) | 2.68 µM (inactive) | 5.89 µM (inactive) | 14.4 µM (inactive) | 3.8 µM (inactive) | 6.05 µM (inactive) | 5.52 µM (inactive) | 13.5 µM (inactive) | 4 µM (inactive) | 1 µM (active) | 3.7 µM (inactive) | 7.57 µM (inactive) |  | 3.08 µM (inactive) | 1.99 µM (inactive) | 1.4 µM (inactive) |
